What was measured:
CYP11A1 [1] = target: T1, CYP11A1 (Homo sapiens, UniProt P05108); test: Testosterone synthesis inhibition in NCI-H295R cells (testosterone ELISA of culture supernatant); type: cell-based; conditions: 24 hours incubation, testosterone in culture supernatant by ELISA
T1 construct: host or cells: NCI-H295R human adrenocortical cancer cells
T1 sequence (P05108 40-521): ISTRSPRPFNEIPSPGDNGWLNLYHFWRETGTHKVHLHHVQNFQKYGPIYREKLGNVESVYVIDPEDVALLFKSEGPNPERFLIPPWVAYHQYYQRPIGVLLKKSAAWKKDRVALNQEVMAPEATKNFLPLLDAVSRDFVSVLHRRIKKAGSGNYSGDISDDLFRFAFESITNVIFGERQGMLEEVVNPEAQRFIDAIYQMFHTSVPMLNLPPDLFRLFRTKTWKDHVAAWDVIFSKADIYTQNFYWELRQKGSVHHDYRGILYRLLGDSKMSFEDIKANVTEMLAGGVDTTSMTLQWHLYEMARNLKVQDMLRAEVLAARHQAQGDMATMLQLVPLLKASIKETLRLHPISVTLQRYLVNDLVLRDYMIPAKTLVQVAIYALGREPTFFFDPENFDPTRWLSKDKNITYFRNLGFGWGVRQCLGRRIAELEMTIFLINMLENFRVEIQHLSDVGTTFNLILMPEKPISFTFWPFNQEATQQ
Protocol: The ability of different compounds to inhibit testosterone biosynthesis was determined by detecting the concentration of testosterone (Abnova testosterone ELISA kit, KA6502) using enzyme-linked immunosorbent assay (ELISA), so as to detect the ability of the compounds to inhibit CYP11A1. In the experiment, similarly, the human adrenocortical cancer cell line NCI-H295R (Procell, CL-0399) was also used as an enzyme source. The compounds were added during NCI-H295R cell culture. After incubation, the concentration of testosterone in the culture supernatant was determined.
95 µl of NCI-H295R cells were taken and cultured overnight with a specialized cell culture medium (Procell, CM-0399) in a 96-well culture plate in a cell incubator at 37°C and 5% CO2. 5 µl/well of a DMSO (Sigma, D8418) solution of the compounds to be tested at different concentrations was then added, followed by continued incubation for 24 hours. The final concentrations of the compounds to be tested were 1000 nM, 333.33 nM, 111.11 nM, 37.04 nM, 12.35 nM, 4.12 nM, 1.37 nM, 0.46 nM, and 0 nM. After the incubation was complete, the cells were centrifuged, 80 µl/well of the cell culture supernatant was obtained, and the concentration of testosterone therein was determined by ELISA method. During ELISA detection, a testosterone standard was used to generate a standard curve. The experiment was carried out with replicate wells. The ELISA well plate had been coated with an anti-testosterone monoclonal antibody. In ELISA plate strips, 25 µl/well of the culture supernatant or standard solution or reference substance was added, followed by 200 µl of a testosterone-HRP complex solution, and the plate was incubated for 1 hour at room temperature on a plate shaker (QILINBEIER, QB-9002) at 200 rpm. Then, the plate was washed three times with a cleaning solution, with 300 µl each time, and patted dry on absorbent paper. 200 µl of a TMB substrate was added. The plate was incubated on the plate shaker for 15 minutes at room temperature, and 100 µl of a stop solution was then added. The absorbance was measured at 450 nm by a microplate reader (PerkinElmer, 2105). The IC50 value was calculated by using GraphPad Prism software. [formula]

CYP11A1 [2] = target: T1, CYP11A1; test: Pregnenolone synthesis inhibition in NCI-H295R cells (pregnenolone ELISA of culture supernatant); type: cell-based; conditions: 24 hours incubation, pregnenolone in culture supernatant by ELISA
Excerpt: Conversion of cholesterol into pregnenolone is a first rate-limiting step in the synthesis of all steroid hormones in vertebrates. This conversion reaction involves a two-step continuous monooxygenation reaction catalyzed by the unique cytochrome P450scc (CYP11A) to produce C22-hydroxycholesterol and C20,C22-dihydroxycholesterol in order, followed by CYP11A1-catalyzed breakage of a C20-C22 carbon-carbon single bond in C20,C22-dihydroxycholesterol to produce one molecule of pregnenolone and one molecule of 4-methylvaleraldehyde. Therefore, the inhibitory effect of a compound on CYP11A1 was identified by detecting the ability of the compound to inhibit pregnenolone synthesis.
The ability of different compounds to inhibit pregnenolone biosynthesis was determined by detecting the concentration of pregnenolone (Abnova pregnenolone ELISA kit, KA1912) using enzyme-linked immunosorbent assay (ELISA), so as to detect the ability of the compounds to inhibit CYP11A1. […] In order to determine the half-maximal inhibitory concentrations (IC50) of CYP11A1 inhibition by different compounds, the compounds were added during NCI-H295R cell culture, and after incubation, the concentration of pregnenolone in the culture supernatant was determined.
95 µl of NCI-H295R cells were taken and cultured overnight with a specialized cell culture medium (Procell, CM-0399) in a 96-well culture plate in a cell incubator at 37°C and 5% CO2. 5 µl/well of a DMSO (Sigma, D8418) solution of the compounds to be tested at different concentrations was then added, followed by continued incubation for 24 hours. The final concentrations of the compounds to be tested were 1000 nM, 333.33 nM, 111.11 nM, 37.04 nM, 12.35 nM, 4.12 nM, 1.37 nM, 0.46 nM, and 0 nM. After the incubation was complete, the cells were centrifuged, 80 µl/well of the cell culture supernatant was obtained and 1 : 8 diluted with the cell culture medium, and the concentration of pregnenolone therein was then determined by ELISA method. During ELISA detection, a pregnenolone standard was used to generate a standard curve. The experiment was carried out with replicate wells. The ELISA well plate had been coated with an anti-pregnenolone rabbit polyclonal antibody. In ELISA plate strips, 50 µl/well of the diluted culture supernatant or standard solution or reference substance was added, followed by 100 µl of a pregnenolone-HRP complex solution, and the plate was incubated for 1 hour at room temperature on a plate shaker (QILINBEIER, QB-9002) at 200 rpm. Then, the plate was washed three times with a cleaning solution, with 300 µl each time, and patted dry on absorbent paper. 150 µl of a TMB substrate was added. The plate was incubated on the plate shaker for 10-15 minutes at room temperature, and 50 µl of a stop solution was then added. The absorbance was measured at 450 nm by a microplate reader (PerkinElmer, 2105). The IC50 value was calculated by using GraphPad Prism software. [formula]

[3] = Pharmacokinetic evaluation in ICR mice after intragastric administration (plasma, LC/MS/MS); type: in vivo; conditions: mouse, po, male ICR mice, i.g., 20 mg/kg
Protocol: Taking ICR mice as test animals, the drug concentration in plasma of ICR mice was determined by LC/MS/MS method at different times after intragastric administration (i.g.) with the compound of the present disclosure. The pharmacokinetic behavior of the compound of the present disclosure in ICR mice was studied and the pharmacokinetic characteristics thereof were evaluated.
27 male ICR mice were taken and randomly divided into three groups. The mice were provided by JOINN Laboratories (Suzhou) Co., Ltd. Before administration, the mice were fasted overnight for at least 12 hours. During the fasting and experiment, the drinking water was normal saline.
A certain amount of the compound to be tested was taken, and the test sample prepared with a final concentration of 2 mg/mL was taken for oral administration. The preparation solvent was 0.5% Tween 80 in a 0.5% methylcellulose aqueous solution. After the preparation was complete, a 1N hydrochloric acid aqueous solution was added for adjustment to a clear solution (pH 4-5).
The dosage was 20.0 mg/kg and the dosage volume was 10.0 ml/kg.
At 15 min, 30 min, 1 h, 2 h, 4 h, 6 h, 8 h, 10 h, and 24 h after administration, at least 0.2 mL was taken from the vein (3 animals at each time point) and placed in an EDTA-K2 anticoagulation test tube. The blood sample was collected and then placed in a labeled ice-water bath centrifuge tube, and the plasma was quickly separated by centrifugation. The centrifugation conditions were as follows: 4000 revolutions/minute, 10 minutes, and 4°C. The plasma was stored at -40°C or lower for later testing. Feed supply was resumed 4 hours after administration.
Determination of the content of the compound to be detected in the plasma of ICR mice: After the plasma sample was thawed at room temperature, 50 µL was taken and added to 300 µL of (200 ng/mL, acetonitrile, terfenadine) internal standard, the mixture was vortexed and uniformly mixed for 1 min and then centrifuged at 4°C at 15400 g for 10 min. The supernatant was taken and injected for LC/MS/MS analysis.
The main pharmacokinetic parameters, such as AUC, Cmax and t1/2, were calculated by non-compartmental analysis (NCA) method using WinNonlin software.

IC50 (CYP11A1 [1]): 17.7 nM
IC50 (CYP11A1 [2]): 4.15 nM
AUC(0-t) ([3]; read-out: Area under the curve AUC0-t): 9950 ng·h/mL
half-life ([3]; read-out: Half-life T1/2 (converted)): 42.5 min
Cmax ([3]; read-out: Plasma concentration Cmax): 9720 ng/mL
SMILES: Cn1c(CN2Cc3ccccc3C2)ccc(OCC2CCN(S(C)(=O)=O)CC2)c1=O [Compound 1, 6-(isoindolin-2-ylmethyl)-1-methyl-3-((1-(methylsulfonyl)piperidine-4-yl)methoxy)pyridin-2(1H)-one]
